Laboratory results from ChEMBL document CHEMBL4602601, “Pharmaceutical and medicinal significance of sulfur (SVI)-Containing motifs for drug discovery: A critical review” (Eur J Med Chem, 2019).

Experiments:
[1] = Half life in rat; type: ADME; conditions: in vivo
Chikungunya virus = test: Antiviral activity against CHIKV; type: functional, organism-based
[2] = Inhibition of HIV protease; design: species or system Human immunodeficiency virus
THP-1 = test: Cytotoxicity against human THP1 cells assessed as reduction in cell viability; type: functional, cell-based
[3] = Antagonist activity at cannabinoid receptor (unknown origin); design: species or system Homo sapiens
Carbonic anhydrase 2 = Carbonic anhydrase 2 (Homo sapiens, UniProt P00918); test: Inhibition of human carbonic anhydrase 2
Carbonic anhydrase 4 = Carbonic anhydrase 4 (Homo sapiens, UniProt P22748); test: Inhibition of human carbonic anhydrase 4
Sequence of Carbonic anhydrase 4 (P22748 whole entry): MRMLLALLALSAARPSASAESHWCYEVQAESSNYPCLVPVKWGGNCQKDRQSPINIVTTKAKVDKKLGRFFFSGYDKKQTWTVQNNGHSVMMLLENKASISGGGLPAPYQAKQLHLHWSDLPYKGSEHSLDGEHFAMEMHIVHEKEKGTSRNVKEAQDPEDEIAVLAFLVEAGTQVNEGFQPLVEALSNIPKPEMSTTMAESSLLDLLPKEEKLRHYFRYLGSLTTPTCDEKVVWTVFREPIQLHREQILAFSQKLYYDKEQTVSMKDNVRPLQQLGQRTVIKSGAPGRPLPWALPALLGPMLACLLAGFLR

[4] = target: 5-hydroxytryptamine receptor 6 (Homo sapiens, UniProt P50406); test: Antagonist activity at 5-HT6 receptor (unknown origin)
Sequence of 5-hydroxytryptamine receptor 6 (P50406 whole entry): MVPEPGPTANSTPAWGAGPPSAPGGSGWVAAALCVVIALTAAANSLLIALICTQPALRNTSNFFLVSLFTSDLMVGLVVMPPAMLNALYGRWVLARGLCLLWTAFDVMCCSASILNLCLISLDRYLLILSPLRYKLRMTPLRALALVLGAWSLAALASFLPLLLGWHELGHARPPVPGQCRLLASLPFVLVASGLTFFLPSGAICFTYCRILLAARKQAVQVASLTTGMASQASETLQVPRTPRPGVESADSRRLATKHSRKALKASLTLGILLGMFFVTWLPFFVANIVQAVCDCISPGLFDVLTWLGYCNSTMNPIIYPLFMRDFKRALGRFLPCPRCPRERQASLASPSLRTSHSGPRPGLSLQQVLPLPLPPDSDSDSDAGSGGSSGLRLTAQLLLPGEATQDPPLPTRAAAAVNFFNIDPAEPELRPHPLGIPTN

Carbonic anhydrase 1 = Carbonic anhydrase 1 (Homo sapiens, UniProt P00915); test: Inhibition of human carbonic anhydrase 1
Sequence of Carbonic anhydrase 1 (P00915 whole entry): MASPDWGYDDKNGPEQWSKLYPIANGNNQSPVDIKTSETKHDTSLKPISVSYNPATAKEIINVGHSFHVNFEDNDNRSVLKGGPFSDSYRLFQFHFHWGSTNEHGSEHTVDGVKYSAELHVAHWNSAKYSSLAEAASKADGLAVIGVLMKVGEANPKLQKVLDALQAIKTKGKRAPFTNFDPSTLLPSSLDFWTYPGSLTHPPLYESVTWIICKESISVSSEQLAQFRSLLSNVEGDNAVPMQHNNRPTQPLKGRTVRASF

[5] = target: T1, Prostaglandin G/H synthase 2 (Rattus norvegicus, UniProt P35355); test: Inhibition of COX2 isolated from rat seminal vesicles assessed as reduction of PGG2 to PGH2 using arachidonic acid substrate preincubated for 15 mins followed by substrate addition
T1 sequence (P35355 whole entry): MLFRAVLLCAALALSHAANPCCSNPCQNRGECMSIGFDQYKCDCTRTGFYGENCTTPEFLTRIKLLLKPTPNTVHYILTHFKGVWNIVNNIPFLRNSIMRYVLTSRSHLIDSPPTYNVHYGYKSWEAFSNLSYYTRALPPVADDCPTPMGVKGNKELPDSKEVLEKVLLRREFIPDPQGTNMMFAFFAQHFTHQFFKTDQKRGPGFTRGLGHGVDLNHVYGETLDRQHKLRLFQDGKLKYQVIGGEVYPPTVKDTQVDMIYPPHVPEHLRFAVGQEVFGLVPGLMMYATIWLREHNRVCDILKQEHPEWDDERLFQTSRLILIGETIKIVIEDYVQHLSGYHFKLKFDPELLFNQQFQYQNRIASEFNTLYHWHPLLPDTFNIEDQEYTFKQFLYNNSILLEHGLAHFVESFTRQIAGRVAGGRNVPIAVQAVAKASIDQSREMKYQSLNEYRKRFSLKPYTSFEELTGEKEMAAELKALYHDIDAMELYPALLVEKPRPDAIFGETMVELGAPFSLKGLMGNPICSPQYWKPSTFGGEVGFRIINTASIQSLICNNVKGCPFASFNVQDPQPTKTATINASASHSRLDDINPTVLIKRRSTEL

[6] = Inhibition of rat 5'-nucleotidase
Cannabinoid receptor 1 [7] = target: T2, Cannabinoid receptor 1 (Homo sapiens, UniProt P21554); test: Antagonist activity at human cannabinoid CB1 receptor
T2 sequence (P21554 whole entry): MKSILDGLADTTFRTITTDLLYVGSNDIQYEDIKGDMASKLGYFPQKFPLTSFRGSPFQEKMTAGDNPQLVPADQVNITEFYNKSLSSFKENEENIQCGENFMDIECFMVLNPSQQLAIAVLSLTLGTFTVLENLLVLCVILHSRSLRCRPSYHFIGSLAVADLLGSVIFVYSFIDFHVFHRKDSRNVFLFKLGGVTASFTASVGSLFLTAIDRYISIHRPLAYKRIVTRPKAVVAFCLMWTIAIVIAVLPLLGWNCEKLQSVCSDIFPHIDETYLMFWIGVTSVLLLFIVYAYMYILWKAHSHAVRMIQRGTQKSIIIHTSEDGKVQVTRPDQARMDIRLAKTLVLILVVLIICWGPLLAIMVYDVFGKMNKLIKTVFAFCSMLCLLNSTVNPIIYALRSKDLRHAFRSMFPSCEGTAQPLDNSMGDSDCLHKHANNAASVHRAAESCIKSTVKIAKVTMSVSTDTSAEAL

[8] = Inhibition of HIV RT; design: species or system Human immunodeficiency virus
[9] = tested on: Human immunodeficiency virus 1; test: Antiviral activity against HIV1; type: functional, organism-based
[10] = Inhibition of HIV integrase; design: species or system Human immunodeficiency virus
Cannabinoid receptor 2 = Cannabinoid receptor 2 (Homo sapiens, UniProt P34972); test: Antagonist activity at human cannabinoid CB2 receptor
Sequence of Cannabinoid receptor 2 (P34972 whole entry): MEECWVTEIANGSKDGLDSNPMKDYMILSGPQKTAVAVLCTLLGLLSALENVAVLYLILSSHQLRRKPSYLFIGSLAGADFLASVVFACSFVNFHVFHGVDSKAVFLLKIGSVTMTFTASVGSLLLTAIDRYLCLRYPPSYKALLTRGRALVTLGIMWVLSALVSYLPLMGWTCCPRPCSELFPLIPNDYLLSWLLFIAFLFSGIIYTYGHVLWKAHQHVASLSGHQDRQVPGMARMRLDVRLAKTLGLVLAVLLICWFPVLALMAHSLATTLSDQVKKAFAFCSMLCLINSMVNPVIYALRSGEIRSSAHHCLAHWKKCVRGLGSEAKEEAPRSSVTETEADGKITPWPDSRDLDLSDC

Cannabinoid receptor 1 [11] = target: T2, Cannabinoid receptor 1; test: Antagonist activity at cannabinoid CB1 receptor (unknown origin)
Leishmania amazonensis = test: Antileishmanial activity against Leishmania amazonensis; type: functional, organism-based
Leishmania infantum = test: Antileishmanial activity against Leishmania infantum; type: functional, organism-based
Trypanosoma cruzi = test: Antitrypanosomal activity against Trypanosoma cruzi; type: functional, organism-based

Compound: N#Cc1ccc(S(=O)(=O)Nc2cccc(C(c3c(O)c4c(oc3=O)CCCCCC4)C3CC3)c2)cc1 (configuration not stated)
- half-life [1]: 6 h
- IC50 (Chikungunya virus): 1.5 nM
- Ki [2]: 0.8 nM

Compound: O=S(=O)(Nc1ccc([Se][Se]c2ccc(NS(=O)(=O)c3ccc(F)cc3)cc2)cc1)c1ccc(F)cc1
- IC50 (THP-1): 2800 nM

Compound: Cc1ccc(S(=O)(=O)Oc2ccc3c(CSc4nc5ccccc5c(=O)[nH]4)cc(=O)oc3c2)cc1
- EC50 (Chikungunya virus): 10200 nM

Compound: O=S(=O)(NCc1ccc(-c2ccc(F)cc2F)cn1)c1cc2cc(Cl)ccc2[nH]1
- IC50 [3]: 3 nM

Compound: COc1ccc(C2=NN(C(C)=O)C(c3ccc(OS(N)(=O)=O)cc3)C2)cc1 (configuration not stated)
- IC50 (Carbonic anhydrase 2): 0.4 nM
- IC50 (Carbonic anhydrase 4): 20.5 nM

Compound: O=S(=O)(Nc1ccc2sc(N3CCNCC3)nc2c1)c1cccc2ccccc12
- Ki [4]: 500 nM

Compound: NS(=O)(=O)c1ccc(N2C(=O)CC/C2=C\C(=O)c2cccc(F)c2)cc1
- IC50 (Carbonic anhydrase 2): 0.46 nM

Compound: O=S(=O)(Cl)c1c(Cl)nc2n1CCS2
- Ki [4]: 8.4 nM

Compound: CC(=O)/C(=N\Nc1cccc(-n2nc(C(=O)Nc3nnc(S(N)(=O)=O)s3)c(C(=O)Nc3nnc(S(N)(=O)=O)s3)c2-c2ccccc2)c1)C(=O)c1ccccc1
- Ki (Carbonic anhydrase 1): 119 nM

Compound: C/C(=N\NC(=O)CNC(=O)c1cccc(S(=O)(=O)Nc2ccccc2Cl)c1)c1ccc(F)cc1
- IC50 [5]: 8400 nM

Compound: COc1cc(/C=C2\C=C(c3ccc(Cl)cc3)N(c3ccc(S(N)(=O)=O)cc3)C2=O)cc(OC)c1OC
- IC50 [5]: 420 nM

Compound: O=S(=O)(Nc1ccc2[nH]ccc2c1)c1c(Cl)nc2n1CCS2
- Ki [4]: 16.9 nM

Compound: NS(=O)(=O)c1ccc(N2C(=O)/C(=C/c3ccc(C(F)(F)F)cc3)C=C2c2ccc(Cl)cc2)cc1
- IC50 [5]: 620 nM

Compound: CCCC(=O)/C(=N/Nc1cccc(-n2nc(C(=O)Nc3nnc(S(N)(=O)=O)s3)c(C(=O)Nc3nnc(S(N)(=O)=O)s3)c2-c2ccccc2)c1)C(=O)OCC
- Ki (Carbonic anhydrase 2): 884 nM

Compound: COc1ccc(/C=C/C(=O)/C(=N/Nc2ccc(S(N)(=O)=O)cc2)N2CCOCC2)cc1
- IC50 [6]: 330 nM

Compound: Cc1cc(S(=O)(=O)N2CCc3c(nc(C(C)(C)C)n3CC3CC3)C2)no1
- EC50 (Cannabinoid receptor 1 [7]): 5.1 nM

Compound: CN(C)c1cccnc1N1CCN(C(=O)c2cc3cc(NS(C)(=O)=O)ccc3[nH]2)CC1
- IC50 [8]: > 100000 nM
- IC50 [9]: 21 nM
- IC50 [10]: 36 nM

Compound: O=C(CNC(=O)c1cccc(S(=O)(=O)Nc2ccccc2Cl)c1)N/N=C/c1ccc(C(F)(F)F)cc1
- IC50 [5]: 8900 nM

Compound: CCn1cnc2c(Oc3ccc(/C=C/C(=O)c4ccc(NS(=O)(=O)c5ccccc5C)cc4)cc3)ncnc21
- EC50 (Chikungunya virus): 51.6 µg/mL

Compound: CC(C)c1ccc(S(=O)(=O)Nc2ccc3nc(N4CCN(C)CC4)sc3c2)cc1
- IC50 [4]: 14000 nM

Compound: O=C(NN1CCCCC1)c1cn(-c2ccc(Cl)cc2Cl)c(-c2ccc(C#Cc3ccc(C(F)(F)F)cc3)s2)c1CNS(=O)(=O)N1CCCC1
- Ki (Cannabinoid receptor 2): 21 nM
- EC50 (Cannabinoid receptor 1 [11]): 3 nM
- Ki (Cannabinoid receptor 1 [7]): 0.3 nM

Compound: CN1CCN(c2nc3cc(NS(=O)(=O)c4cccc5ccccc45)ccc3s2)CC1
- IC50 [4]: 3900 nM

Compound: NS(=O)(=O)c1ccc(N2C(=O)CC/C2=C\C(=O)c2ccc([N+](=O)[O-])cc2Cl)cc1
- IC50 (Carbonic anhydrase 2): 0.46 nM

Compound: O=c1ccnc(SCc2cc(=O)oc3cc(OS(=O)(=O)c4ccccc4[N+](=O)[O-])ccc23)[nH]1
- EC50 (Chikungunya virus): 13000 nM

Compound: CCOc1ccc(-c2ccc(CNS(=O)(=O)c3cc4cc(Cl)ccc4[nH]3)cc2)cn1
- IC50 [3]: 4 nM

Compound: Cc1cc(S(=O)(=O)N2CCc3c(nc(CC(C)(C)C)n3CC3CC3)C2)no1
- EC50 (Cannabinoid receptor 1 [7]): 7 nM

Compound: O=S(=O)(Nc1cccc2cnccc12)c1ccc2ccccc2c1
- IC50 (Leishmania amazonensis): 42900 nM
- IC50 (Leishmania infantum): 23000 nM
- IC50 (Trypanosoma cruzi): 224000 nM

Compound: CC(=O)N1CCc2ccc(NS(=O)(=O)c3c(Cl)nc4n3CCS4)cc21
- Ki [4]: 5.4 nM
